A short description of data set [1]: Stability and size of micro-dispersions in distilled water. In kind it is physicochemical. The conditions noted are these: dispersed in water without γ-PGA. Here is the method: The particle size of the redispersed solutions of γ-PGA/Ptx and γ-PGA/Imq was measured using Electrophoretic Light Scattering-ELS Z (Otsuka Electronics, Osaka, Japan). The stability of the dispersion was assessed by observing the samples for aggregation and phase separation after storing the sample at 4° C. for 1 week after dispersion in distilled water. The morphology of theses micro-dispersions were observed through FE-SEM (JSM-7000F, JEOL Ltd. Japan) and FE-TEM (JEM-2100F HR, JEOL Ltd. Japan). For the SEM sample preparation, the lyophilized and redispersed suspension was deposited on a silicon wafer plate and vacuum-dried to remove water, followed by platinum coating using a Technics Hummer II sputter coater at 30 mA for 90 s. For TEM sample preparation, a drop (2 μL) of redispersed suspension was placed onto a formvar/carbon coated copper grid, followed by vacuum-drying to evaporate water.
Distinct monodisperse peaks for γ-PGA/Imq and γ-PGA/Ptx/Imq were observed, indicating uniform size distribution (FIG. 3). In case of γ-PGA/Ptx, two peaks were observed, which might be due to a high aspect ratio of the paclitaxel crystal.

Data set [2] in a line: In-vitro viability assay (MTS). The class given is cell-based. The conditions noted are these: mouse, bone marrow derived dendritic cells (BMDCs), after 48 h, normalized to untreated cells, read-out: cell viability / proliferation of BMDCs.
Description: BMDCs were isolated from mouse bone marrow as reported previously. MTS assay for analysis of mitochondrial activity was used as a measure of cell viability. 1×10^4 cells in 100 μL media were seeded per well in a 96 well plate (Corning Costar, Cambridge, Mass., USA). 100 μl of sample dispersion was added to cell culture media and incubated for 24 h and 48 h at 37° C. and 5% CO2. After the incubation, 20 μL of MTS solution-Cell Titer 96 Aqueous One Solution kit (Promega, Madison, Wis., USA) was added to each well and incubated for 2 h. The absorbance of the samples was measured at 490 nm (VersaMax, Molecular Devices, Sunnyvale, Calif., USA) and normalized with respect to absorbance of untreated cells.

For `CC(C)Cn1cnc2c(N)nc3ccccc3c21` [imiquimod], the “dispersion state in water without γ-PGA” value in data set [1] was “aggregation and precipitation”. In addition, in data set [2], the viability at 48 h worked out at 250%. `CC(=O)O[C@H]1C(=O)[C@@]2(C)[C@H]([C@H](OC(=O)c3ccccc3)[C@]3(O)C[C@H](OC(=O)[C@H](O)[C@@H](NC(=O)c4ccccc4)c4ccccc4)C(C)=C1C3(C)C)[C@]1(OC(C)=O)CO[C@@H]1C[C@@H]2O` [paclitaxel]: the “dispersion state in water without γ-PGA” value in data set [1] is “aggregation and precipitation”.
